From ChEMBL document CHEMBL1145498, “A systematic interaction map of validated kinase inhibitors with Ser/Thr kinases” (Proc Natl Acad Sci U S A, 2007)

What was measured:
[1] = molecular target: Mitogen-activated protein kinase 3 (Homo sapiens, UniProt P27361)
[2] = molecular target: T1, Mitogen-activated protein kinase kinase kinase 5 (Homo sapiens) (UniProt Q99683)
T1 sequence (whole entry): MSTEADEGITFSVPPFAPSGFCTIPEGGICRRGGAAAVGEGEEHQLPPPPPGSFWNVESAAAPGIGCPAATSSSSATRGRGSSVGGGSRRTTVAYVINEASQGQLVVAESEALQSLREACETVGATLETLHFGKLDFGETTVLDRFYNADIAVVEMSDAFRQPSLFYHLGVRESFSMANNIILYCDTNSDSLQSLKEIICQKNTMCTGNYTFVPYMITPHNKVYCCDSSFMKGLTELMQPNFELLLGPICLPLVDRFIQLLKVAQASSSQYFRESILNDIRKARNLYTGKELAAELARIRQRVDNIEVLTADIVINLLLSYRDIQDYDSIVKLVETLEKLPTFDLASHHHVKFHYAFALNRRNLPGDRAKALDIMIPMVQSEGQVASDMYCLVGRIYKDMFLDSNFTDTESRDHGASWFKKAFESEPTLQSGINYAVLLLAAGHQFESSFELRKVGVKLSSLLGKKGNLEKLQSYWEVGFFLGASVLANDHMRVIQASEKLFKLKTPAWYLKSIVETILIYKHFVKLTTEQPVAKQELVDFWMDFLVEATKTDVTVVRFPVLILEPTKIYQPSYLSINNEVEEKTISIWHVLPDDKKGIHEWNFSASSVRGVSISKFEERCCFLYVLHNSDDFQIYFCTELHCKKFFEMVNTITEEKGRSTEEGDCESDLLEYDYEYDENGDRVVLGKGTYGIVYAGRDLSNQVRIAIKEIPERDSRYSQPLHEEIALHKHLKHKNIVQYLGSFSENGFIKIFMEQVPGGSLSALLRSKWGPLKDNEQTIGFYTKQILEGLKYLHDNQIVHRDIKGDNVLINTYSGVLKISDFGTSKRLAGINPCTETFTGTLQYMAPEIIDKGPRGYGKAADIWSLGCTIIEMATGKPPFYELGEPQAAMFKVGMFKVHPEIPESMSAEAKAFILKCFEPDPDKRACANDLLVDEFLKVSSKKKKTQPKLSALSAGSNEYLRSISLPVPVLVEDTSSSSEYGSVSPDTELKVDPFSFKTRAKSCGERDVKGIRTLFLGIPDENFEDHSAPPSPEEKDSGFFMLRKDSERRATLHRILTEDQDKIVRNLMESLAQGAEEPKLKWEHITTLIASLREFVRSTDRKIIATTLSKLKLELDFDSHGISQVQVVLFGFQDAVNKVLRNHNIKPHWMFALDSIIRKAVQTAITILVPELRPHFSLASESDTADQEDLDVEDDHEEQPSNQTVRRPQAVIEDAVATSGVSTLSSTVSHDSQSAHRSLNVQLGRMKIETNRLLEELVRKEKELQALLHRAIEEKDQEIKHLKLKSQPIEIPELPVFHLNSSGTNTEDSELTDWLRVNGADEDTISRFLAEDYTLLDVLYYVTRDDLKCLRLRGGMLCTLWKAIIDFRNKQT

[3] = molecular target: Serine/threonine-protein kinase 26 (Homo sapiens) (UniProt Q9P289)
Sequence of Serine/threonine-protein kinase 26 (Homo sapiens) (Q9P289 2-416 limits assumed): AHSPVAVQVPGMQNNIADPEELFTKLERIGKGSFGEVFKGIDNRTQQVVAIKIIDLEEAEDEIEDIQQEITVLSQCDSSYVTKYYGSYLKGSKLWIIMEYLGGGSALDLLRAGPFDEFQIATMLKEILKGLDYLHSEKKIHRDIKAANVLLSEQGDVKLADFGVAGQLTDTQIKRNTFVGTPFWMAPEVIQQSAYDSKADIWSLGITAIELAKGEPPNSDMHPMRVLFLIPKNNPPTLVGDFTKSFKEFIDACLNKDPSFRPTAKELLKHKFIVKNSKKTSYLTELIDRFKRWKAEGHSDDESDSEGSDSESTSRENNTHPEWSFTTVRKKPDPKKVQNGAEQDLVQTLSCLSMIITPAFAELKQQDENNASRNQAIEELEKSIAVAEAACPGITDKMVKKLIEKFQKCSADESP

[4] = molecular target: Cyclin-dependent kinase 2 (Homo sapiens, UniProt P24941)
[5] = molecular target: T2, Serine/threonine-protein kinase 17A (Homo sapiens) (UniProt Q9UEE5)
T2 sequence (whole entry): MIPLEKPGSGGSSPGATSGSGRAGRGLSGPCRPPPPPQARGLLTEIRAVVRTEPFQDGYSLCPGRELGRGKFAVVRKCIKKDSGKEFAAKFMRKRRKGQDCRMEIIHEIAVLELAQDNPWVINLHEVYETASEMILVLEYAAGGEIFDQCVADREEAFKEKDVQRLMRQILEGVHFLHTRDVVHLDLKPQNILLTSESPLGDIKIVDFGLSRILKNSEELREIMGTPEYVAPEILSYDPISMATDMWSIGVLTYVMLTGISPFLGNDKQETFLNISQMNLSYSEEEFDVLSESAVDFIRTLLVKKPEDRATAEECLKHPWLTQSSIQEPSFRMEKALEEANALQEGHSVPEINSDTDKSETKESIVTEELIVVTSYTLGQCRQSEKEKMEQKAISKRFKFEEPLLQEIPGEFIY

[6] = molecular target: 5'-AMP-activated protein kinase catalytic subunit alpha-2 (Homo sapiens) (UniProt P54646)
Sequence of 5'-AMP-activated protein kinase catalytic subunit alpha-2 (Homo sapiens) (P54646 whole entry, looked up): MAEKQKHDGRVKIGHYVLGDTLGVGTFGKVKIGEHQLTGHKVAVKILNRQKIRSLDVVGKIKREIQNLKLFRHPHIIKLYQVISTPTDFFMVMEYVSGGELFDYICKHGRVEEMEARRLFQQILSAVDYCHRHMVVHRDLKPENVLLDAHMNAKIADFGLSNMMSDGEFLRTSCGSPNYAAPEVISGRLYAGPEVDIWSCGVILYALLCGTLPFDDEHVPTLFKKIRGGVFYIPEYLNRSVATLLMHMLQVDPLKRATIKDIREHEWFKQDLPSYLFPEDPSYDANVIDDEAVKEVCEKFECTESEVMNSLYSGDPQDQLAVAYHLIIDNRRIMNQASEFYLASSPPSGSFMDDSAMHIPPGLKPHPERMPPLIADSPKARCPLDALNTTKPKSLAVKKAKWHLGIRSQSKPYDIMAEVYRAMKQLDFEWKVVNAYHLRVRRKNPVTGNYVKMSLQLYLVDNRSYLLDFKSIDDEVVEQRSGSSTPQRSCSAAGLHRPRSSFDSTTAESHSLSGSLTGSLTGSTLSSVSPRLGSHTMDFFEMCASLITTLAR

[7] = molecular target: Death-associated protein kinase 3 (Homo sapiens) (UniProt O43293)
Sequence of Death-associated protein kinase 3 (Homo sapiens) (O43293 whole entry, looked up): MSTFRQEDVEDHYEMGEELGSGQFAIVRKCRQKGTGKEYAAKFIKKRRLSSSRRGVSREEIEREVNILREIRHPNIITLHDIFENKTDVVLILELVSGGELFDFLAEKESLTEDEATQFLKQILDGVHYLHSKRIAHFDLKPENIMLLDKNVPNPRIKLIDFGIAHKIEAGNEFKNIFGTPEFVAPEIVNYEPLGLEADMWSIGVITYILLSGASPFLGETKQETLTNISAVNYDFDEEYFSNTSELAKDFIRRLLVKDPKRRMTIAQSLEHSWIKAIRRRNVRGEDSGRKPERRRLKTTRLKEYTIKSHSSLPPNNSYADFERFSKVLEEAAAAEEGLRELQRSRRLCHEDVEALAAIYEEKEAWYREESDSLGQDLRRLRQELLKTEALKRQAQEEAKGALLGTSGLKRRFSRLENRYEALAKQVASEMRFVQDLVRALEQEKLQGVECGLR

[8] = molecular target: T3, Serine/threonine-protein kinase VRK1 (Homo sapiens) (UniProt Q99986)
T3 sequence (whole entry): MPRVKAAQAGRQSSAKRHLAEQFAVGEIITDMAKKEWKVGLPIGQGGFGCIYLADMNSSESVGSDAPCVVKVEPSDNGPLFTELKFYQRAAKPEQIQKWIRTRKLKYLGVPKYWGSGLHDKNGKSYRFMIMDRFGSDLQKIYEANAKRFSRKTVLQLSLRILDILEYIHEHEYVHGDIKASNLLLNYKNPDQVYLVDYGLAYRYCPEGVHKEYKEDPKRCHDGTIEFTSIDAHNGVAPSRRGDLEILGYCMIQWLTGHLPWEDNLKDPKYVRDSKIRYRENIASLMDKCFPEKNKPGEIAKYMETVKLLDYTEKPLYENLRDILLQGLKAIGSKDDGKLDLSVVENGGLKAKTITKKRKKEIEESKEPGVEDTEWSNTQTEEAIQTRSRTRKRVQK

Sequence of Mitogen-activated protein kinase 3 (P27361 whole entry): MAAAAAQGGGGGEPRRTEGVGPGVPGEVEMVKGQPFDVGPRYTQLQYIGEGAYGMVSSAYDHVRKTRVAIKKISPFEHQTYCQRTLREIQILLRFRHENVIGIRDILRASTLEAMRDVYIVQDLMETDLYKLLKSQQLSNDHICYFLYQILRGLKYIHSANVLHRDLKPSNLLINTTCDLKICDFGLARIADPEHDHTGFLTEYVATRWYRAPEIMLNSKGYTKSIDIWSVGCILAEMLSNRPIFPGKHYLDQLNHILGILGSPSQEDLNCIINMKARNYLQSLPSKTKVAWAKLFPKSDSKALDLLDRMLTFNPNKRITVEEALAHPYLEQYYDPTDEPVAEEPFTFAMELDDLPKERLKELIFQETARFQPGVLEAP

Compound	ΔTm [1] [°C]	ΔTm [2] [°C]	ΔTm [3] [°C]	ΔTm [4] [°C]	ΔTm [5] [°C]	ΔTm [6] [°C]	ΔTm [7] [°C]	ΔTm [8] [°C]
CN(C)C[C@@H]1CCn2cc(c3ccccc32)C2=C(C(=O)NC2=O)c2cn(c3ccccc23)CCO1 [RUBOXISTAURIN]	0.5	0.1	-2	0.9	-0.2	1.3	1.1	0.8
c1ccc(-c2n[nH]c3c2oc2ccccc23)cc1	0.3	1.4	0.6	0.7	1	0.5	-0.9	1
O=C(O)c1cc(N(Cc2ccccc2O)Cc2cc(O)ccc2O)ccc1O [LAVENDUSTIN A]	0.3	0.2	2.1	1.3	0.1	-1.1	0.8	0.3
O=c1cc(N2CCOCC2)oc2c1ccc1ccccc12	0.2	1.2	0.5	0.5	0.6	0.4	1.8	0
Nc1cccc(-c2cc3c(Oc4cccc(O)c4)ncnc3[nH]2)c1	0	0.5	0.8	0.9	0.9	0.6	0.4	0.8
CCOc1cc2ncnc(Nc3cccc(Br)c3)c2cc1OCC	0.7	0.6	1.3	0.4	2.9	0.1	2.7	0
Cc1cc(Nc2nc(-c3ccccc3)nc3ccccc23)n[nH]1	0.1	0.9	3.3	3	2.2	5.8	6.5	0.8
CN(C)CCCn1cc(C2=C(c3c[nH]c4ccccc34)C(=O)NC2=O)c2ccccc21 [GF-109203]	0.6	0.9	3.1	1.7	1.3	2.6	2.8	0.2
COc1cccc(-c2cc(=O)c3ccccc3o2)c1N	0	-0.1	-0.1	0.3	0.7	-0.5	-0.5	0.2
COc1cc(C[C@H]2C(=O)OC[C@@H]2Cc2ccc(OC)c(OC)c2)ccc1O [ARCTIGENIN]	-0.4	0.2	-0.3	0.6	1.4	-0.9	-0.3	0.7
COc1ccc(CNc2nc(N(CCO)CCO)nc3c2ncn3C(C)C)cc1	0.2	2	0.8	1.6	-0.2	0.6	0.7	0.7
COc1ccc2c(c[n+](C)c3c4cc5c(cc4ccc23)OCO5)c1OC [CHELERYTHRINE CHLORIDE]	-0.5	-0.2	-1	0.2	-0.8	-1.3	0.1	-0.1
O=C1NC(=O)c2c1c1c3ccccc3[nH]c1n1cncc21 [ISOGRANULATIMIDE]	2	2.6	2.5	5.2	1.3	3.6	5.3	1.7
NCCNS(=O)(=O)c1cccc2c(Cl)cccc12	0.1	0.4	0	0.1	1	-0.2	3.2	0
Cc1c2ccncc2c(C)c2c1[nH]c1ccccc12 [ELLIPTECINE]	0.3	0.4	0.4	1.6	0.8	1.8	4.3	0.4
